Among the data in PubChem BioAssay AID280 (DTP/NCI, 2004) are T/C values, retold here.

Toxic doses and inconclusive results are not listed.

The test system of the assay is nude mice, LOX melanoma ip, survival T/C. In words: NCI In Vivo Anticancer Drug Screen. Data for tumor model Human Amelanotic Melanoma (LOX) (intraperitoneal) in NU/NU BALB/C (nude) mice. The settings on record: endpoint: median survival time, higher = longer survival. The protocol:
The antitumor activity of compounds was measured in mice bearing transplantable tumors. Survival or tumor size were measured and the results are expressed as the measurement made in the treated group (T) divided by the measurement made in the vehicle treated control group (C). The tumor model used in this assay is Human Amelanotic Melanoma (LOX) (intraperitoneal) in NU/NU BALB/C (nude) mice

[1] abbreviates: dose: 50.0 mg/kg/injection, schedule: Q04DX003 (ip), vehicle: Klucel (hydroxypropylcellulose) (HPC).
Where [2] appears, read: dose: 100.0 mg/kg/injection, schedule: Q04DX003 (ip), vehicle: Klucel (hydroxypropylcellulose) (HPC).
[3] abbreviates: dose: 75.0 mg/kg/injection, schedule: Q04DX003 (ip), vehicle: saline.
[4] abbreviates: dose: 150.0 mg/kg/injection, schedule: Q04DX003 (ip), vehicle: saline.
[5] abbreviates: dose: 300.0 mg/kg/injection, schedule: Q04DX003 (ip), vehicle: saline.
Setting [6] is: dose: 100.0 mg/kg/injection, schedule: Q04DX003 (ip), vehicle: saline with Tween-80.
Setting [7] is: dose: 200.0 mg/kg/injection, schedule: Q04DX003 (ip), vehicle: saline with Tween-80.
[8] abbreviates: dose: 50.0 mg/kg/injection, schedule: Q04DX003 (ip), vehicle: saline with Tween-80.

For `O=C1CN(CCN2CC(=O)N(CN3CCOCC3)C(=O)C2)CC(=O)N1CN1CCOCC1`, the T/C is, setting by setting: (dose: 18.75 mg/kg/injection, schedule: Q04DX003 (ip), vehicle: saline with Tween-80) 98 % of control; (dose: 37.5 mg/kg/injection, schedule: Q04DX003 (ip), vehicle: saline with Tween-80) 120 % of control; (dose: 37.5 mg/kg/injection, schedule: Q04DX003 (ip), vehicle: water) 88 % of control; (dose: 75.0 mg/kg/injection, schedule: Q04DX003 (ip), vehicle: saline with Tween-80) 108 % of control; (dose: 75.0 mg/kg/injection, schedule: Q04DX003 (ip), vehicle: water) 102 % of control; (dose: 150.0 mg/kg/injection, schedule: Q04DX003 (ip), vehicle: water) 101 % of control.

`O=C(NC(Cc1ccc(I)cc1)C(=O)O)c1cccc(Br)c1` (centres undefined): the T/C was 112 % of control under setting [1]; 105 % of control (dose: 75.0 mg/kg/injection, schedule: Q04DX003 (ip), vehicle: Klucel (hydroxypropylcellulose) (HPC)); 112 % of control under setting [2]; 89 % of control (dose: 150.0 mg/kg/injection, schedule: Q04DX003 (ip), vehicle: Klucel (hydroxypropylcellulose) (HPC)); 103 % of control (dose: 200.0 mg/kg/injection, schedule: Q04DX003 (ip), vehicle: Klucel (hydroxypropylcellulose) (HPC)); 96 % of control (dose: 300.0 mg/kg/injection, schedule: Q04DX003 (ip), vehicle: Klucel (hydroxypropylcellulose) (HPC)). In addition, the T/C (dose: 400.0 mg/kg/injection, schedule: Q04DX003 (ip), vehicle: Klucel (hydroxypropylcellulose) (HPC)) was 87 % of control.

In the case of `NCCSC(C[N+](=O)[O-])c1ccccc1Cl` (centres undefined), the T/C is 107 % of control (dose: 12.5 mg/kg/injection, schedule: Q04DX003 (ip), vehicle: saline); 115 % of control (dose: 25.0 mg/kg/injection, schedule: Q04DX003 (ip), vehicle: saline); 96 % of control (dose: 50.0 mg/kg/injection, schedule: Q04DX003 (ip), vehicle: saline).

Take `COc1c2c(c(O)c3c4c(c(C)cc13)C1OC3(C(OC)OC5CC(C)(O)C(OC6CC(C)(O)C(O)C(C)O6)C(C)O5)OC1C(OC)(O4)C31CO1)C(=O)C(O)CC2OC1CC(C)(O)C(OC(C)=O)C(C)O1` (centres undefined): the T/C is, setting by setting: (dose: 12.5 micrograms/kg/injection, schedule: Q04DX003 (ip), vehicle: saline) 261 % of control; (dose: 25.0 micrograms/kg/injection, schedule: Q04DX003 (ip), vehicle: saline) 181 % of control; (dose: 50.0 micrograms/kg/injection, schedule: Q04DX003 (ip), vehicle: saline) 107 % of control.

For the compound `COc1ccc2oc(-c3ccc(Cl)cc3)c(N3CCN(C)CC3)c2c1`, the T/C was 91 % of control under setting [3], 118 % of control under setting [4] and 90 % of control under setting [5].

Turning to `NCCCSc1ccccc1`, the T/C was 94 % of control (dose: 9.38 mg/kg/injection, schedule: Q01DX009 (ip), vehicle: saline); 99 % of control (dose: 18.75 mg/kg/injection, schedule: Q01DX009 (ip), vehicle: saline); 99 % of control (dose: 37.5 mg/kg/injection, schedule: Q01DX009 (ip), vehicle: saline); 94 % of control (dose: 75.0 mg/kg/injection, schedule: Q01DX009 (ip), vehicle: saline); 89 % of control (dose: 150.0 mg/kg/injection, schedule: Q01DX009 (ip), vehicle: saline).

For the compound `COc1ccc(O)cc1`, the T/C is, setting by setting: under setting [6], 124 % of control; under setting [7], 102 % of control.

In the case of `O=NNc1ccc(Cl)cn1`, the T/C is, setting by setting: (dose: 2.5 mg/kg/injection, schedule: Q04DX003 (ip), vehicle: water) 105 % of control; (dose: 3.13 mg/kg/injection, schedule: Q04DX003 (ip), vehicle: water) 111 % of control; (dose: 5.0 mg/kg/injection, schedule: Q04DX003 (ip), vehicle: water) 101 % of control; (dose: 6.25 mg/kg/injection, schedule: Q04DX003 (ip), vehicle: water) 112 % of control; (dose: 10.0 mg/kg/injection, schedule: Q04DX003 (ip), vehicle: water) 118 % of control; (dose: 20.0 mg/kg/injection, schedule: Q04DX003 (ip), vehicle: water) 124 % of control.

As to `COc1ccc(/C=C/C(=O)c2ccccc(=O)c2O)c(OC)c1OC`, the T/C (dose: 6.85 mg/kg/injection, schedule: Q04DX003 (ip), vehicle: Klucel (hydroxypropylcellulose) (HPC)) was 100 % of control; the T/C (dose: 13.7 mg/kg/injection, schedule: Q04DX003 (ip), vehicle: Klucel (hydroxypropylcellulose) (HPC)) was 100 % of control; the T/C (dose: 27.5 mg/kg/injection, schedule: Q04DX003 (ip), vehicle: Klucel (hydroxypropylcellulose) (HPC)) is 110 % of control; the T/C (dose: 55.0 mg/kg/injection, schedule: Q04DX003 (ip), vehicle: Klucel (hydroxypropylcellulose) (HPC)) is 104 % of control; the T/C (dose: 110.0 mg/kg/injection, schedule: Q04DX003 (ip), vehicle: Klucel (hydroxypropylcellulose) (HPC)) is 110 % of control.

For the compound `C/C(=N\NC(=S)N1CCC1)c1ccccn1`, the T/C is, setting by setting: (dose: 3.13 mg/kg/injection, schedule: Q04DX003 (ip), vehicle: other) 99 % of control; (dose: 6.25 mg/kg/injection, schedule: Q04DX003 (ip), vehicle: other) 96 % of control; (dose: 12.5 mg/kg/injection, schedule: Q04DX003 (ip), vehicle: other) 95 % of control; (dose: 25.0 mg/kg/injection, schedule: Q04DX003 (ip), vehicle: other) 100 % of control.

Take `NC(CCC(=O)NC(CS)C(=O)NCC(=O)O)C(=O)O` (centres undefined): the T/C under setting [3] was 100 % of control; the T/C under setting [4] is 100 % of control; the T/C (dose: 259.0 mg/kg/injection, schedule: Q04DX003 (ip), vehicle: saline) was 108 % of control; the T/C under setting [5] was 107 % of control; the T/C (dose: 432.0 mg/kg/injection, schedule: Q04DX003 (ip), vehicle: saline) is 108 % of control; the T/C (dose: 600.0 mg/kg/injection, schedule: Q04DX003 (ip), vehicle: saline) was 104 % of control. The T/C was 93 % of control (dose: 720.0 mg/kg/injection, schedule: Q04DX003 (ip), vehicle: saline) and 95 % of control (dose: 1200.0 mg/kg/injection, schedule: Q04DX003 (ip), vehicle: saline).

Regarding `COc1ccc2oc3c(ccc[n+]3C)c(=O)c2c1`, the T/C reads like this: under setting [8], 108 % of control; under setting [6], 107 % of control; under setting [7], 102 % of control; (dose: 400.0 mg/kg/injection, schedule: Q04DX003 (ip), vehicle: saline with Tween-80) 101 % of control.

In the case of `C/C(=N\NC(=S)N1CC2CCC(CC2)C1)c1cccc(C)n1`, the T/C by setting is: (dose: 6.25 mg/kg/injection, schedule: Q04DX003 (ip), vehicle: saline with Tween-80) 105 % of control; (dose: 12.5 mg/kg/injection, schedule: Q04DX003 (ip), vehicle: saline with Tween-80) 109 % of control; (dose: 25.0 mg/kg/injection, schedule: Q04DX003 (ip), vehicle: saline with Tween-80) 103 % of control; under setting [8], 120 % of control; under setting [6], 109 % of control.

As to `O=c1[nH]cnc2c1cnn2CN1CCOCC1`, the T/C by setting is: (dose: 25.0 mg/kg/injection, schedule: Q04DX003 (ip), vehicle: Klucel (hydroxypropylcellulose) (HPC)) 93 % of control; under setting [1], 123 % of control; under setting [2], 109 % of control.
